Measured values published in the supplement of paper PMC10307832.

Experiments:
Assay in all cases: relative viability (nuclei count vs DMSO), 5 days (fraction); higher = more cells survive
[1] = compound: O=C(C[C@H]1NCCC[C@@H]1O)Cn1cnc2cc(Br)c(Cl)cc2c1=O (racemic) [Halofuginone] + CC1(C)CCC(c2ccc(Cl)cc2)=C(CN2CCN(c3ccc(C(=O)NS(=O)(=O)c4ccc(N[C@H](CCN5CCOCC5)CSc5ccccc5)c(S(=O)(=O)C(F)(F)F)c4)cc3)CC2)C1 [Navitoclax] (partner 0.5 µM)
How it was run: (§1)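 Lung cancer cell lines were pin-tool dosed in 1536-well plates on the day after seeding, with either a lone drug or a fixed anchor-drug dose plus five library-drug doses (not always all listed) in √10 steps. Nuclei were counted on 4× images after 5 days. Relative viability is the ratio of treated-well to vehicle-well nuclei counts, with each value a median of duplicate plates.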

Halofuginone + Lapatinib = compound: O=C(C[C@H]1NCCC[C@@H]1O)Cn1cnc2cc(Br)c(Cl)cc2c1=O (racemic) [Halofuginone] + CS(=O)(=O)CCNCc1ccc(-c2ccc3ncnc(Nc4ccc(OCc5cccc(F)c5)c(Cl)c4)c3c2)o1 [Lapatinib] (partner 2 µM)
How it was run: as §1

Decitabine + OSI-027 = compound: Nc1ncn([C@H]2C[C@H](O)[C@@H](CO)O2)c(=O)n1 [Decitabine] + COc1cccc2cc(-c3nc([C@H]4CC[C@H](C(=O)O)CC4)n4ncnc(N)c34)[nH]c12 [OSI-027] (partner 0.5 µM)
How it was run: as §1

Decitabine + Linsitinib = compound: Nc1ncn([C@H]2C[C@H](O)[C@@H](CO)O2)c(=O)n1 [Decitabine] + C[C@]1(O)C[C@@H](c2nc(-c3ccc4ccc(-c5ccccc5)nc4c3)c3c(N)nccn32)C1 [Linsitinib] (partner 1 µM)
How it was run: as §1

UMC-11
relative viability ([1]; first compound 0.001 µM): 0.325 | relative viability ([1]; first compound 0.003162 µM): 0.314 | relative viability ([1]; first compound 0.01 µM): 0.324 | relative viability ([1]; first compound 0.03162 µM): 0.26 | relative viability ([1]; first compound 0.1 µM): 0.138 | relative viability (Halofuginone + Lapatinib; first compound 0.001 µM): 1.02 | relative viability (Halofuginone + Lapatinib; first compound 0.003162 µM): 0.997 | relative viability (Halofuginone + Lapatinib; first compound 0.01 µM): 0.889 | relative viability (Halofuginone + Lapatinib; first compound 0.03162 µM): 0.924 | relative viability (Halofuginone + Lapatinib; first compound 0.1 µM): 0.7 | relative viability (Decitabine + OSI-027; first compound 0.04 µM): 0.46 | relative viability (Decitabine + OSI-027; first compound 0.1265 µM): 0.0004 | relative viability (Decitabine + OSI-027; first compound 0.4 µM): 0.411 | relative viability (Decitabine + OSI-027; first compound 1.265 µM): 0.316 | relative viability (Decitabine + OSI-027; first compound 4 µM): 0.363 | relative viability (Decitabine + Linsitinib; first compound 0.04 µM): 0.976 | relative viability (Decitabine + Linsitinib; first compound 0.1265 µM): 0.802 | relative viability (Decitabine + Linsitinib; first compound 0.4 µM): 0.448 | relative viability (Decitabine + Linsitinib; first compound 1.265 µM): 0.38 | relative viability (Decitabine + Linsitinib; first compound 4 µM): 0.335
